In US8475804B2 (priority 2009, dated 2013):
Structures can show the parent of a compound that is named as a salt. Where two headings read alike, the source gives them in different places.

Tests used:
Ebola virus [1] = assay: microbe, parasite or virus in culture; type: cell-based, Ebolavirus (EBOV)
Ebola virus [2] = assay: microbe, parasite or virus in culture; type: cell-based, Ebolavirus (EBOV); design: Max Effect HepG2: unit not given here; settings: for Emax: HepG2, read-out: Max Effect HepG2
[3] = Zaire ebolavirus, Vero, read-out: IC50 (μM) Vero
[4] = Zaire ebolavirus, Vero, read-out: Max Effect
[5] = Zaire ebolavirus, Vero, read-out: Max Effect Vero
[6] = Zaire ebolavirus, HepG2, read-out: IC50 (μM) HepG2

| Compound | IC50 (Ebola virus [1]; Zaire ebolavirus, Vero) [µM] | IC50 (Ebola virus [1]; [3]) [µM] | Emax (Ebola virus [1]; [4]) [%] | Emax (Ebola virus [1]; [5]) [%] | IC50 (Ebola virus [2]; [6]) [µM] | Emax (Ebola virus [2]; Zaire ebolavirus) [%] | other results |
| --- | --- | --- | --- | --- | --- | --- | --- |
| CC(=O)c1ccc2c(c1)N(CCCN1CCC(CCO)CC1)c1ccccc1S2 [Piperacetazine] | – | – | – | – | – | – | Max Effect (Ebola virus [1]): 0.641; Max Effect Vero (Ebola virus [1]): 0.962; IC50 (Ebola virus [1]; read-out: IC50): 6.6 µM; IC50 (Ebola virus [1]; read-out: IC50 (μM) Vero): 12 µM; Max Effect HepG2 (Ebola virus [2]): 0.954; IC50 (Ebola virus [2]; read-out: IC50 (μM) HepG2): 3.3 µM |
| CC(C)COCC(CN(Cc1ccccc1)c1ccccc1)N1CCCC1 (stereo not drawn) [Bepridil Hydrochloride Monohydrate] | 3.1 | 5.1 | 72 | 97 | 3.2 | 91.2 | – |
| O=C1Nc2ccc(Cl)cc2[C@@](C#CC2CC2)(C(F)(F)F)O1 [Efavirenz] | 7.8 | 10 | 51.6 | 63.9 | 14 | 86 | – |
| CCN(CC)CCOc1ccc(/C(=C(\Cl)c2ccccc2)c2ccccc2)cc1 [Clomiphene Citrate] | – | – | 91.2 | 96.4 | – | 93.4 | – |
| CCN(CC)CCNc1ccc(CO)c2sc3ccccc3c(=O)c12 [Hycanthone] | 10.4 | 11 | 59.7 | 96.8 | 6 | 96.2 | – |
| CN(C)CCOc1ccc(/C(=C(/CCCl)c2ccccc2)c2ccccc2)cc1 [Toremifene Citrate] | – | 0.16 | – | 93.5 | 0.026 | 94.9 | IC50 (Ebola virus [1]): > 1 µM; Max Effect (Ebola virus [1]): 0.900 |
| O=C1C(O)=C([C@H]2CC[C@H](c3ccc(Cl)cc3)CC2)C(=O)c2ccccc21 [Atovaquone] | < 1 | 0.44 | 90 | 73.9 | – | 23.1 | – |
| CNCCCC12CCC(c3ccccc31)c1ccccc12 [Maprotiline Hydrochloride] | – | – | 79.5 | 98.6 | – | 92.5 | – |
| CCC(C)(C)C(=O)O[C@H]1C[C@@H](C)C=C2C=C[C@H](C)[C@H](CC[C@@H]3C[C@@H](O)CC(=O)O3)[C@H]21 [Simvastatin] | 2 | 20 | 69 | 55.7 | – | 35.3 | – |
| COc1ccc(CCN2CCC(Nc3nc4ccccc4n3Cc3ccc(F)cc3)CC2)cc1 [Astemizole] | – | – | 83.5 | 96.5 | – | 91.4 | – |
| CN1CCN(CCCN2c3ccccc3Sc3ccc(Cl)cc32)CC1 [Prochlorperazine Edisylate] | – | – | 89 | 96.3 | – | 94.7 | – |
| COc1ccc(CN2CCN(C(c3ccc(F)cc3)c3ccc(F)cc3)CC2)c(OC)c1OC [Lomerizine Dihydrochloride] | 10.1 | 11 | 66.5 | 89.9 | 2.1 | 91.8 | – |
| CN(C)CCCN1c2ccccc2CCc2ccc(Cl)cc21 [Clomipramine Hydrochloride] | – | – | 58.5 | 96.1 | – | 89.7 | – |
| CCN(CC)CCCC(C)Nc1c2ccc(Cl)cc2nc2ccc(OC)cc12 (stereo not drawn) [Quinacrine Dihydrochloride] | 9.5 | 5.7 | 77.9 | 92.3 | 1 | 86.2 | – |
| CC/C(=C(/CC)c1ccc(O)cc1)c1ccc(O)cc1 [Diethylstilbestrol] | – | – | 43.6 | – | – | – | – |
| COc1ccc2cc1Oc1ccc(cc1)C[C@H]1c3c(cc4c(c3Oc3cc5c(cc3OC)CCN(C)[C@@H]5C2)OCO4)CCN1C [Cepharanthine] | 5.6 | – | 65.2 | – | – | – | – |
| COc1cc(C[C@H]2C(=O)OC[C@@H]2Cc2ccc(OC)c(OC)c2)ccc1O [(−)-Arctigenin] | – | – | – | – | – | – | Max Effect (Ebola virus [1]): 0.411 |
| CSc1ccc2c(c1)N(CCC1CCCCN1C)c1ccccc1S2.Cl (stereo not drawn) [Thioridazine Hydrochloride] | – | – | – | – | – | – | Max Effect (Ebola virus [1]): 0.915; Max Effect Vero (Ebola virus [1]): 0.954; IC50 (Ebola virus [1]; read-out: IC50): 4.3 µM; IC50 (Ebola virus [1]; read-out: IC50 (μM) Vero): 6.2 µM |
